One block for each molecule: values may come before it.
Columns and labels:
[1] = water/octanol partition coefficient Ln(aw/ao) of the technetium complex; assay type: physicochemical; settings: for Partition Coefficient = Ln(aw/ao): 27000 µM
Procedure: This ratio of distribution is quite easily followed by determining the activity of the respective phases of a two-phase system, in which the complex is added as a water solution to octanol in equal parts. […] (wherein aw is the radioactivity distributed in the aqueous phase and ao is the radioactivity distributed in the organic phase, at a pH in the range between pH 4 and pH 9), after thorough agitation to admix the phases followed by standing to accomplish complete separation.
The blood is on the mildly alkaline side at pH=7.4, while the urine, etc., is about pH 5 to pH 8.

[2] = kidney imaging in dogs with a gamma radiation detecting camera; assay type: in vivo; settings: one-half hour after injection
Procedure: Next, 9 ml. of saline were added to the glass vial (held under N2 atmosphere). The pH of the vial contents was raised to pH 7.4, using 1 molar NaOH. The solution was transferred to a pharmaceutical vial, capped and sealed. Using a needle inserted through the rubber seal septum, the vial was evacuated to 5 mm. Hg pressure and purged with nitrogen to 1 atmospheric pressure. The vial contents were ready for injection and kidney imaging.

[3] = biological distribution of the 99m-Tc complex in mice as a function of time; assay type: in vivo, white female Swiss Webster mice; settings: for Percentage of total 99m-Tc in mice, Carcass / Percentage of total 99m-Tc in mice, Gut / Percentage of total 99m-Tc in mice, Kidneys / Percentage of total 99m-Tc in mice, Liver / Percentage of total 99m-Tc in mice, Lungs / Percentage of total 99m-Tc in mice, Pancreas / Percentage of total 99m-Tc in mice, Spleen / Percentage of total 99m-Tc in mice, Stomach / Percentage of total 99m-Tc in mice, Spleen & Pancreas / Percentage of total 99m-Tc in mice, Urine: i.v. tail vein
Procedure: The mice were injected intravenously via the tail vein, sacrificed after appropriate time periods, then dissected. The isolated organs were assayed for radioactivity using a Packard series 410 A Auto Gamma Spectrometer.
Each data point represents an average value from three mice taken in three separate distribution studies.
The mice were tested and assayed for radioactivity as described in Example 1.

[4] = in vivo
[5] = localization of technetium activity in a mouse after injection of the complex into the blood stream; assay type: in vivo; settings: one hour after injection into the blood stream
Procedure: One hour after this complex was injected into the blood stream of a mouse, about 24 percent of technetium activity had localized in its kidneys.

[6] = mouse kidney distribution of Tc-99m pertechnetate (comparison); assay type: in vivo; settings: at any time during a 24 hour period

Molecule: 99m-Tc-dimercaptosuccinic acid
- Partition Coefficient = Ln(aw/ao) ([1]; pH 4): 6.0
- Partition Coefficient = Ln(aw/ao) ([1]; pH 5): 6.8
- Partition Coefficient = Ln(aw/ao) ([1]; pH 6): 7.6
- Partition Coefficient = Ln(aw/ao) ([1]; pH 7): 8.5
- Partition Coefficient = Ln(aw/ao) ([1]; pH 8): 8.2
- Partition Coefficient = Ln(aw/ao) ([1]; pH 9): 8.1
- kidney images [2]: Good kidney images
- Percentage of total 99m-Tc in mice, Carcass ([3]; 0 hr): 40.9 Percentage of total 99m-Tc
- Percentage of total 99m-Tc in mice, Carcass ([3]; 0.5 hr): 30.4 Percentage of total 99m-Tc
- Percentage of total 99m-Tc in mice, Carcass ([3]; 1.0 hr): 26.9 Percentage of total 99m-Tc
- Percentage of total 99m-Tc in mice, Carcass ([3]; 2.0 hr): 20.4 Percentage of total 99m-Tc
- Percentage of total 99m-Tc in mice, Carcass ([3]; 4.0 hr): 21.3 Percentage of total 99m-Tc
- Percentage of total 99m-Tc in mice, Carcass ([3]; 24.0 hr): 8.0 Percentage of total 99m-Tc
- Percentage of total 99m-Tc in mice, Gut ([3]; 0 hr): 10.1 Percentage of total 99m-Tc
- Percentage of total 99m-Tc in mice, Gut ([3]; 0.5 hr): 6.1 Percentage of total 99m-Tc
- Percentage of total 99m-Tc in mice, Gut ([3]; 1.0 hr): 7.0 Percentage of total 99m-Tc
- Percentage of total 99m-Tc in mice, Gut ([3]; 2.0 hr): 4.3 Percentage of total 99m-Tc
- Percentage of total 99m-Tc in mice, Gut ([3]; 4.0 hr): 3.0 Percentage of total 99m-Tc
- Percentage of total 99m-Tc in mice, Gut ([3]; 24.0 hr): 1.7 Percentage of total 99m-Tc
- Percentage of total 99m-Tc in mice, Kidneys ([3]; 0 hr): 9.4 Percentage of total 99m-Tc
- Percentage of total 99m-Tc in mice, Kidneys ([3]; 0.5 hr): 29.3 Percentage of total 99m-Tc
- Percentage of total 99m-Tc in mice, Kidneys ([3]; 1.0 hr): 39.5 Percentage of total 99m-Tc
- Percentage of total 99m-Tc in mice, Kidneys ([3]; 2.0 hr): 45.6 Percentage of total 99m-Tc
- Percentage of total 99m-Tc in mice, Kidneys ([3]; 4.0 hr): 54.8 Percentage of total 99m-Tc
- Percentage of total 99m-Tc in mice, Kidneys ([3]; 24.0 hr): 75.5 Percentage of total 99m-Tc
- Percentage of total 99m-Tc in mice, Liver ([3]; 0 hr): 28.6 Percentage of total 99m-Tc
- Percentage of total 99m-Tc in mice, Liver ([3]; 0.5 hr): 12.8 Percentage of total 99m-Tc
- Percentage of total 99m-Tc in mice, Liver ([3]; 1.0 hr): 9.4 Percentage of total 99m-Tc
- Percentage of total 99m-Tc in mice, Liver ([3]; 2.0 hr): 6.8 Percentage of total 99m-Tc
- Percentage of total 99m-Tc in mice, Liver ([3]; 4.0 hr): 3.8 Percentage of total 99m-Tc
- Percentage of total 99m-Tc in mice, Liver ([3]; 24.0 hr): 2.7 Percentage of total 99m-Tc
- Percentage of total 99m-Tc in mice, Lungs ([3]; 0 hr): 7.4 Percentage of total 99m-Tc
- Percentage of total 99m-Tc in mice, Lungs ([3]; 0.5 hr): 2.3 Percentage of total 99m-Tc
- Percentage of total 99m-Tc in mice, Lungs ([3]; 1.0 hr): 1.7 Percentage of total 99m-Tc
- Percentage of total 99m-Tc in mice, Lungs ([3]; 2.0 hr): 0.8 Percentage of total 99m-Tc
- Percentage of total 99m-Tc in mice, Lungs ([3]; 4.0 hr): 0.7 Percentage of total 99m-Tc
- Percentage of total 99m-Tc in mice, Lungs ([3]; 24.0 hr): 0.0 Percentage of total 99m-Tc
- Percentage of total 99m-Tc in mice, Pancreas ([3]; 0 hr): 1.4 Percentage of total 99m-Tc
- Percentage of total 99m-Tc in mice, Pancreas ([3]; 0.5 hr): 0.7 Percentage of total 99m-Tc
- Percentage of total 99m-Tc in mice, Pancreas ([3]; 1.0 hr): 0.4 Percentage of total 99m-Tc
- Percentage of total 99m-Tc in mice, Pancreas ([3]; 2.0 hr): 0.3 Percentage of total 99m-Tc
- Percentage of total 99m-Tc in mice, Pancreas ([3]; 4.0 hr): 0.2 Percentage of total 99m-Tc
- Percentage of total 99m-Tc in mice, Pancreas ([3]; 24.0 hr): 0.2 Percentage of total 99m-Tc
- Percentage of total 99m-Tc in mice, Spleen ([3]; 0 hr): 0.3 Percentage of total 99m-Tc
- Percentage of total 99m-Tc in mice, Spleen ([3]; 0.5 hr): 0.4 Percentage of total 99m-Tc
- Percentage of total 99m-Tc in mice, Spleen ([3]; 1.0 hr): 0.2 Percentage of total 99m-Tc
- Percentage of total 99m-Tc in mice, Spleen ([3]; 2.0 hr): 0.3 Percentage of total 99m-Tc
- Percentage of total 99m-Tc in mice, Spleen ([3]; 4.0 hr): 0.1 Percentage of total 99m-Tc
- Percentage of total 99m-Tc in mice, Spleen ([3]; 24.0 hr): 0.1 Percentage of total 99m-Tc
- Percentage of total 99m-Tc in mice, Stomach ([3]; 0 hr): 1.8 Percentage of total 99m-Tc
- Percentage of total 99m-Tc in mice, Stomach ([3]; 0.5 hr): 1.1 Percentage of total 99m-Tc
- Percentage of total 99m-Tc in mice, Stomach ([3]; 1.0 hr): 1.2 Percentage of total 99m-Tc
- Percentage of total 99m-Tc in mice, Stomach ([3]; 2.0 hr): 0.5 Percentage of total 99m-Tc
- Percentage of total 99m-Tc in mice, Stomach ([3]; 4.0 hr): 0.4 Percentage of total 99m-Tc
- Percentage of total 99m-Tc in mice, Stomach ([3]; 24.0 hr): 0.4 Percentage of total 99m-Tc
- accumulation of activity in the animal's kidneys ([3]; mice, immediately after injection to 24 hour): begins to accumulate in the animal's kidneys immediately after injection of the Tc-DMSA complex and continues to concentrate during a 24 hour period

Molecule: 99m-Tc-thioglucose
- clearance from kidney tissue [4]: rapidly cleared from kidney tissue
- Percentage of total 99m-Tc in mice, Carcass ([3]; 0 hr): 53.1 Percentage of total 99m-Tc
- Percentage of total 99m-Tc in mice, Carcass ([3]; 0.5 hr): 1.5 Percentage of total 99m-Tc
- Percentage of total 99m-Tc in mice, Carcass ([3]; 1.0 hr): 1.4 Percentage of total 99m-Tc
- Percentage of total 99m-Tc in mice, Gut ([3]; 0 hr): 13.3 Percentage of total 99m-Tc
- Percentage of total 99m-Tc in mice, Gut ([3]; 0.5 hr): 5.5 Percentage of total 99m-Tc
- Percentage of total 99m-Tc in mice, Gut ([3]; 1.0 hr): 1.1 Percentage of total 99m-Tc
- Percentage of total 99m-Tc in mice, Kidneys ([3]; 0 hr): 9.0 Percentage of total 99m-Tc
- Percentage of total 99m-Tc in mice, Kidneys ([3]; 0.5 hr): 2.8 Percentage of total 99m-Tc
- Percentage of total 99m-Tc in mice, Kidneys ([3]; 1.0 hr): 0.4 Percentage of total 99m-Tc
- Percentage of total 99m-Tc in mice, Liver ([3]; 0 hr): 18.9 Percentage of total 99m-Tc
- Percentage of total 99m-Tc in mice, Liver ([3]; 0.5 hr): 2.1 Percentage of total 99m-Tc
- Percentage of total 99m-Tc in mice, Liver ([3]; 1.0 hr): 3.3 Percentage of total 99m-Tc
- Percentage of total 99m-Tc in mice, Lungs ([3]; 0 hr): 2.9 Percentage of total 99m-Tc
- Percentage of total 99m-Tc in mice, Lungs ([3]; 0.5 hr): 0.3 Percentage of total 99m-Tc
- Percentage of total 99m-Tc in mice, Lungs ([3]; 1.0 hr): 0.08 Percentage of total 99m-Tc
- Percentage of total 99m-Tc in mice, Spleen & Pancreas ([3]; 0 hr): 2.1 Percentage of total 99m-Tc
- Percentage of total 99m-Tc in mice, Spleen & Pancreas ([3]; 0.5 hr): 0.1 Percentage of total 99m-Tc
- Percentage of total 99m-Tc in mice, Spleen & Pancreas ([3]; 1 hr): 0.2 Percentage of total 99m-Tc
- Percentage of total 99m-Tc in mice, Stomach ([3]; 0 hr): 0.8 Percentage of total 99m-Tc
- Percentage of total 99m-Tc in mice, Stomach ([3]; 0.5 hr): 0.8 Percentage of total 99m-Tc
- Percentage of total 99m-Tc in mice, Stomach ([3]; 1.0 hr): 0.06 Percentage of total 99m-Tc
- Percentage of total 99m-Tc in mice, Urine ([3]; 0 hr): 0.0 Percentage of total 99m-Tc
- Percentage of total 99m-Tc in mice, Urine ([3]; 0.5 hr): 89.9 Percentage of total 99m-Tc
- Percentage of total 99m-Tc in mice, Urine ([3]; 1 hr): 93.5 Percentage of total 99m-Tc
- elimination from the kidneys ([3]; mice, 0-1 hr): eliminated from the kidneys of the mice very rapidly

- Partition Coefficient - Ln(aw/ao) ([1]; pH 4): 2.4
- Partition Coefficient - Ln(aw/ao) ([1]; pH 5): 2.7
- Partition Coefficient - Ln(aw/ao) ([1]; pH 6): 3.1
- Partition Coefficient - Ln(aw/ao) ([1]; pH 7): 3.6
- Partition Coefficient - Ln(aw/ao) ([1]; pH 8): 4.1
- Partition Coefficient - Ln(aw/ao) ([1]; pH 9): 4.7
Molecule: Technetium-3-mercaptopropanoic Acid

Molecule: technetium-mercaptoacetic acid
- technetium activity found in urine [5]: A large part of the remaining activity
- technetium activity localized in kidneys [5]: about 24%

- maximum kidney concentration of Tc-99m pertechnetate [6]: ≤ 3%
Molecule: [O]=[99Tc](=[O])(=[O])[O-] [Tc-99m pertechnetate]

- clearance from kidney tissue [4]: rapidly cleared from kidney tissue
Molecule: Technetium-mercaptosuccinic Acid [^99m Tc-mercapto succinic acid]

From patent publication US4208398A, “Technetium-labeled complexes, production and use thereof” (priority 1975, dated 1980)
